Results as given in patent EP1330254B1, “TREATMENT OF CANCERS BY APLIDINE IN CONJUNCTION WITH CARNITINE OR ACETYLCARNITINE” (priority 2000, dated 2002).
Read-outs that look alike come from different tables or passages of the source. Starred links: 1 amine or outer side, 2 acyl side, 3 side chain; linkers in the order of their positions; H or OH if unused. Positions of bridges follow the written chain, without caps; N, C: chain ends. Non-standard residues stand in square brackets, D forms with d. Residues, ends and D or L forms follow the SMILES beside them. *: point of attachment. X1 = CC[C@H](C)[C@@H](N[*:1])[C@@H](O)CC(=O)O[C@H](C(=O)[C@H](C)C(=O)[*:2])C(C)C; NMeY = CN[C@@H](Cc1ccc(O)cc1)C(=O)O; dNMeL = CN[C@H](CC(C)C)C(=O)O; Pyruvoyl = CC(=O)C(=O)*

Key:
P388 leukaemia = settings: mice; cited from earlier work
VEGF protein = experiment: VEGF production by tumour cells; assay type: cell-based
human cancer xenografts = settings: cited from earlier work
human bladder cancer = experiment: bladder cancer animal models; assay type: in vivo
[1] = L-carnitine as myoprotector in aplidine patients (study APL-A-003-98); assay type: in vivo, human
Description: More generally, the invention involves the use of a muscle protector in conjunction with aplidine therapy. We have found in particular that carnitine is beneficial in treating myotoxicity that is associated with chemotherapy with the experimental drug aplidine. […] When L-carnitine 4.5 g/day was added to the therapy (at doses of 1.5 g three times daily), or […] (at doses of […] 3 times daily) patients were able to tolerate doses of aplidine up to 6000 mcg/m 2 every second week. […] Therefore, muscle protectors such as L-carnitine is a useful myoprotector for patients being treated with aplidine or an aplidine analogue.
L-carnitine at a dose of 1.5 grams 3 times per day or 0.033 g/kg 3 times per day was started in all patients of study APL-A-003-98.
The dose may be decreased to manage the above effects.

[2] = Phase I study, 24h continuous infusion every other week: pharmacokinetics; assay type: in vivo, human; settings: for half-life: human, iv
Description: (§1) A phase I and pharmacokinetic study of aplidine, given as a 24h continuous infusion every other week in patients with solid tumours and non-Hodgkin lymphoma

[3] = Phase I studies: features of aplidine myotoxicity; assay type: in vivo, human
Description: The presentation is variable among patients. Mild cases have muscle cramps (at doses from 3200 mcg/m2 every 2 weeks), while in more severe cases the symptoms are associated to reversible increases in creatin-kinase (CK) reaching up to grade 3. In the dose-limiting cases there is weakness of proximal distribution. The effect has a delayed onset, appearing after 3 to 8 (median 4) infusions of the drug.

HT-29 = HT-29 human colon cancer cell line; cited from earlier work
[4] = Phase I study, 24h continuous infusion every other week: toxicities; assay type: in vivo, human; settings: Pat #27, medullary thyroid carcinoma, 6000 µg/m^2 weekly
[5] = stability of aplidine solution and lyophilised formulation; assay type: physicochemical; settings: solubilised aplidine, heat and light stress testing conditions
Description: In a currently preferred embodiment freeze-drying was performed from a 500 mg/mL solution of aplidine in 40% (v/v) tert-butanol in Water for Injection (WfI) containing 25 mg/mL D-mannitol as bulking agent.

ornithine decarboxylase = biological target: T1, ornithine decarboxylase (Homo sapiens, UniProt P11926); settings: all three cell lines CT-1, CT-2, HT-29; cited from earlier work
T1 construct: endogenous in cells; host or cells: CT-1, CT-2 and HT-29 colon cell lines

B16 melanoma = settings: mice; cited from earlier work
MDA-MB231 = settings: aplidine 50 nmol/L; cited from earlier work
[6] = tested on: gene (FLT1) encoding the receptor of the Vascular Endothelial Growth Factor (VEGF); experiment: inhibition of gene expression; assay type: cell-based
cell cycle = settings: flow cytometric analysis; cited from earlier work
[7] = tested on: Non-small cell lung cancer, breast cancer and melanoma cell lines; settings: continuous exposure; cited from earlier work
[8] = tested on: solid tumours and non-Hodgkin lymphoma; experiment: Phase I study, 24h continuous infusion every other week: antitumour activity; assay type: in vivo, human; settings: patients
Description: as §1

[9] = Phase I dosing regimes with and without carnitine (MTD, DLT, RD); assay type: in vivo, human; design: recommended dose, RD: unit not given here
Description: The Recommended Dose (RD) is the highest dose which can be safely administered to a patient producing tolerable, manageable and reversibly toxicity according to the Common Toxicity Criteria established by the National Cancer Institute, (USA) with no more than 2 out of 6 patients presenting any dose limiting toxicities (DLT). Guidelines for cancer therapy frequently call for administration of chemotherapeutic agents at the highest safe dose at which toxicity is manageable in order to achieve maximum efficacy (DeVita, V.T. Jr., Hellman, S. and Rosenberg, S.A., Cancer: Principles and Practice of Oncology, 3rd ed., 1989, Lipincott, Philadelphia).
DLTs for aplidine using this method of treatment were determined in clinical studies. These studies established a recommended dose level for differing kinds of dosing protocols.

lewis lung carcinomas = settings: cited from earlier work
prostate tumour = settings: 1.25 mg/kg, prostate tumour growth inhibition; cited from earlier work
MDA-MB231 and MCF-7 = settings: treated breast cancer cells; cited from earlier work
[10] = Phase I study, 24h continuous infusion every other week: toxicities; assay type: in vivo, human
Description: as §1
Characterisation of Muscular Toxicity (DLT)

MCF-7 = settings: aplidine 50 nmol/L; cited from earlier work
CT-2 = CT-2 epithelial-like cell line; cited from earlier work
gastric tumours = settings: 1.25 mg/kg; cited from earlier work
CT-1 = CT-1 epithelial-like cell line; cited from earlier work
[11] = tested on: panel of 25 human tumor cell lines; experiment: tumor protection by L-carnitine, cell line panel; assay type: cell-based; settings: initial results
Description: The possibility of tumor protection by L-carnitine was evaluated using a panel of 25 human tumor cell lines.

[12] = 24 hour infusion every 2 weeks, L-carnitine daily
[13] = weekly 1 hour infusion for 3 weeks, 1 week rest
[14] = weekly 24 hour infusion for 3 weeks, 1 week rest
[15] = 200 mcg/m^2/2wks, patients affected of 3
[16] = 400 mcg/m^2/2wks, patients affected of 3
[17] = 800 mcg/m^2/2wks, patients affected of 3
[18] = 1600 mcg/m^2/2wks, patients affected of 6
[19] = 3200 mcg/m^2/2wks, patients affected of 3
[20] = 4000 mcg/m^2/2wks, patients affected of 3
[21] = 5000 mcg/m^2/2wks, patients affected of 3
[22] = 6000 mcg/m^2/2wks, patients affected of 12
[23] = 7000 mcg/m^2/2wks, patients affected of 7
[24] = L-carnitine at the doses used in this study

T1 sequence (P11926 whole entry): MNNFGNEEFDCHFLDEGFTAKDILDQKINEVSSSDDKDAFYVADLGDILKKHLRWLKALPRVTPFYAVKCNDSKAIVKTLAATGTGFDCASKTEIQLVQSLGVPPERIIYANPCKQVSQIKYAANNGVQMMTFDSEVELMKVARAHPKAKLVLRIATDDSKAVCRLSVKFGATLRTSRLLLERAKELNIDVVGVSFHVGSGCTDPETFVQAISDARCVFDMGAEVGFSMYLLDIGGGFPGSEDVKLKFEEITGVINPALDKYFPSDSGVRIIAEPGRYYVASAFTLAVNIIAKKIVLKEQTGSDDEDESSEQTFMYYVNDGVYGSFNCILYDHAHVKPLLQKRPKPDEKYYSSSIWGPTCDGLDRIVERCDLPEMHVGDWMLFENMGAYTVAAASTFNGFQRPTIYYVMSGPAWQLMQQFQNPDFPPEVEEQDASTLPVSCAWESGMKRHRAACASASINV

SMILES: CC[C@H](C)[C@H]1NC(=O)[C@@H](NC(=O)[C@@H](CC(C)C)N(C)C(=O)[C@@H]2CCCN2C(=O)C(C)=O)[C@@H](C)OC(=O)[C@H](Cc2ccc(OC)cc2)N(C)C(=O)[C@@H]2CCCN2C(=O)[C@H](CC(C)C)NC(=O)[C@@H](C)C(=O)[C@H](C(C)C)OC(=O)C[C@@H]1O [aplidine, Dehydrodidemnin B] (Pyruvoyl-P[dNMeL]T[X1]LP[NMeY](Me); ester 3-C)
- activity against implanted tumour (P388 leukaemia): active
- optimal dose (P388 leukaemia): 160 micrograms/kg
- production of the VEGF protein (VEGF protein): severely inhibit production
- treated/control (T/C) tumour ratio (human cancer xenografts; 2.1 mg/kg, near complete remissions in some animals): 9%
- maximum tolerated dose (human cancer xenografts; mice bearing human cancer xenografts): 2.1 mg/kg
- activity on human bladder cancer (human bladder cancer): exceedingly high activity
- doses of aplidine patients were able to tolerate ([1]; every second week, 24-hour infusion, with L-carnitine 4.5 g/day or 0.1mg/kg): up to 6000 mcg/m 2
- half-life ([2]; in vivo, the 3 patients with clear muscular toxicity, read-out: t ½): > 44 h
- half-life ([2]; plasma, preliminary compartmental analysis, 24 h infusion, read-out: median half-life, longer terminal phase (converted)): 25.8 h
- half-life ([2]; plasma, preliminary compartmental analysis, first-order 2-compartment model, read-out: median half-life, rapid initial phase (converted)): 0.64 h
- half-life ([2]; plasma, quartiles 15.7-35.0, read-out: t ½, median (converted)): 23.8 h
- PK profile ([2]; within the constraints of the low sample size): dose-linear
- delayed onset of myotoxicity, infusions of the drug, median ([3]; median): 4 infusions
- reversible increases in creatin-kinase (CK) ([3]; more severe cases): ≤ 3 grade
- light microscopy of muscle ([3]; most biopsied patients): just minimal necrosis or no changes at all
- cytotoxic activity (HT-29): dose-dependent cytotoxic activity
- muscular toxicity (DLT) [4]: symptomatic G3 CPK with G2 muscular pain
- degradation [5]: substantial degradation
- ornithine decarboxylase activity (ornithine decarboxylase): decreased
- activity against implanted tumour (B16 melanoma): active
- optimal dose (B16 melanoma): 160 micrograms/kg
- inhibited the growth (MDA-MB231): 17%
- expression of the gene (FLT1) [6]: inhibits expression
- cell cycle perturbations (cell cycle): did not induce any apparent cell cycle periubations
- concentrations at which cell lines were sensitive [7]: >= 0.001 micromol/L
- antitumour activity [8]: noted in patients with NHL and renal carcinoma
- dose-limiting toxicity ([9]; 1-hour infusion for 5 consecutive days every 3 weeks): Muscular/long lasting emesis
- dose-limiting toxicity ([9]; 24 hour infusion every 2 weeks): Muscular
- recommended dose, RD ([9]; 24 hour infusion every 2 weeks): 5000
- dose-limiting toxicity [9, 12]: Flu-like syndrome
- recommended dose, RD [9, 12]: 7000
- dose-limiting toxicity [9, 13]: Muscular
- recommended dose, RD [9, 13]: 3250
- dose-limiting toxicity [9, 14]: Muscular/ hepatic
- recommended dose, RD [9, 14]: 3750
- RD ([9]; with L-carnitine 0.1 g/kg /day, for Phase II studies): 7 mg/m^2
- activity in SC implanted lewis lung carcinomas (lewis lung carcinomas): active
- T/C (prostate tumour): 25%
- spermidine and spermine (MDA-MB231 and MCF-7): significant increase
- muscle biopsies, E/M ([10]; 2 patients): partial disappearance of thick filaments of myosin
- CPK elevations ([10]; 3 patients (5000 and 6000 µg/m^2), CPK MM increase): minor elevations of CPKs (≥G2)
- Nausea/vomiting G2 [10, 15]: 2
- Transaminitis G2 [10, 15]: 1
- Asthenia G2 [10, 16]: 2
- Hypertension G2 [10, 16]: 1
- Nausea/vomiting G2 [10, 16]: 1
- Flushing G1 [10, 17]: 1
- Muscle cramps G1+G2 [10, 17]: 2
- Asthenia G2 [10, 18]: 2
- Asthenia G3 [10, 18]: 1
- Muscle cramps G1+G2 [10, 18]: 1
- Nausea/vomiting G2 [10, 18]: 4
- Transaminitis G3 [10, 18]: (1)
- Asthenia G2 [10, 19]: 1
- Flushing G1 [10, 19]: 1
- Muscle cramps G1+G2 [10, 19]: 2
- Muscle pain G2 [10, 19]: (1)
- Nausea/vomiting G3 [10, 19]: (1)
- Asthenia G2 [10, 20]: 1
- Flushing G1 [10, 20]: 1
- Muscle cramps G1+G2 [10, 20]: 2
- Muscle pain G1 [10, 20]: 2
- Nausea/vomiting G2 [10, 20]: 2
- Pain central catheter G2 [10, 20]: 2
- Asthenia G3 [10, 21]: (1)
- CPK elevation G3 [10, 21]: (1) [1]
- CPK elevation G4 [10, 21]: (1) [1]
- Muscle cramps G1+G2 [10, 21]: 2
- Muscle pain G1 [10, 21]: 1
- Muscle weakness G1 [10, 21]: 1
- Nausea/vomiting G2 [10, 21]: 1
- Transaminitis G2 [10, 21]: 1
- dose limiting toxicity (drug induced muscular changes) ([10]; 6000 mcg/m^2): 1/9
- Asthenia G2 [10, 22]: 6
- CPK elevation G2 [10, 22]: 1(1)
- CPK elevation G3 [10, 22]: 1(1)
- Muscle cramps G1+G2 [10, 22]: 1
- Muscle pain G1 [10, 22]: 1
- Muscle pain G2 [10, 22]: 2
- Muscle weakness G1 [10, 22]: 1(1)
- Muscle weakness G2 [10, 22]: 1(1)
- Nausea/vomiting G2 [10, 22]: 2
- Asthenia G2 [10, 23]: 2
- CPK elevation G2 [10, 23]: 1
- Flushing G1 [10, 23]: 1
- Muscle pain G1 [10, 23]: 1
- Nausea/vomiting G2 [10, 23]: 1
- Neutrophenia G4 [10, 23]: 1
- Transaminitis G2 [10, 23]: 1
- toxicity recovered after treatment discontinuation ([10]; Pat #27, 6000 µg/m^2): ≤ 3 weeks
- inhibited the growth (MCF-7): 47%
- cytotoxic activity (CT-2): dose-dependent cytotoxic activity
- T/C (gastric tumours): 14%
- cytotoxic activity (CT-1): dose-dependent cytotoxic activity

SMILES: C[N+](C)(C)C[C@H](O)CC(=O)[O-] [L-carnitine]
- effect on the antitumor activity of aplidine [11]: lack of effect
- outcome in patients with prior skeletal muscle toxicity ([1]; 4 patients continuing aplidine, L-carnitine 1.5 grams 3 times per day or 0.033 g/kg 3 times per day): no skeletal muscle symptoms and just transient grade 1 CK increases
- outcome in patients on L-carnitine prophylaxis from the beginning ([1]; 11 patients): just an asymptomatic G1 increase in CK
- only toxicity reported [1, 24]: grade 1 abdominal discornfort and diarrhea
- tolerability [1, 24]: well tolerated
- increase of aplidine MTD ([1]; L-carnitine prophylaxis, 24 h every other week infusion study): 33%
- outcome after L-carnitine at reduced doses ([1]; two patients, grade 3 with weakness and grade 1 with asthenia): symptomatic increases in CK
